The target of series [1] is Sodium channel protein type 5 subunit alpha (Homo sapiens, UniProt Q14524). Nature of the series: Inhibition of sodium channel blockade in CHO cells expressing human cardiac (hHI) sodium channel. It counts as cell-based.
Series [2] addresses Sodium channel protein type 2 subunit alpha (Homo sapiens, UniProt Q99250). Nature of the series: Inhibition of sodium channel blockade in CHO cells expressing neuronal mammalian type IIA (CNaIIA) sodium channel. It counts as cell-based.
The subject of another series is Mus musculus. Briefly: In vivo anticonvulsant activity tested as percent inhibition of audiogenic antiseizure in DBA/2 mice at a dose of 20 mg/kg, ip. It counts as functional. As to conditions: route intraperitoneal.
Series [3] can be described thus: pKa value determined. It counts as physicochemical.
A short description of series [4]: Partition coefficient (logD). As to conditions: octanol/water. The class given is physicochemical.

Sodium channel protein type 2 subunit alpha, sequence (Q99250 whole entry): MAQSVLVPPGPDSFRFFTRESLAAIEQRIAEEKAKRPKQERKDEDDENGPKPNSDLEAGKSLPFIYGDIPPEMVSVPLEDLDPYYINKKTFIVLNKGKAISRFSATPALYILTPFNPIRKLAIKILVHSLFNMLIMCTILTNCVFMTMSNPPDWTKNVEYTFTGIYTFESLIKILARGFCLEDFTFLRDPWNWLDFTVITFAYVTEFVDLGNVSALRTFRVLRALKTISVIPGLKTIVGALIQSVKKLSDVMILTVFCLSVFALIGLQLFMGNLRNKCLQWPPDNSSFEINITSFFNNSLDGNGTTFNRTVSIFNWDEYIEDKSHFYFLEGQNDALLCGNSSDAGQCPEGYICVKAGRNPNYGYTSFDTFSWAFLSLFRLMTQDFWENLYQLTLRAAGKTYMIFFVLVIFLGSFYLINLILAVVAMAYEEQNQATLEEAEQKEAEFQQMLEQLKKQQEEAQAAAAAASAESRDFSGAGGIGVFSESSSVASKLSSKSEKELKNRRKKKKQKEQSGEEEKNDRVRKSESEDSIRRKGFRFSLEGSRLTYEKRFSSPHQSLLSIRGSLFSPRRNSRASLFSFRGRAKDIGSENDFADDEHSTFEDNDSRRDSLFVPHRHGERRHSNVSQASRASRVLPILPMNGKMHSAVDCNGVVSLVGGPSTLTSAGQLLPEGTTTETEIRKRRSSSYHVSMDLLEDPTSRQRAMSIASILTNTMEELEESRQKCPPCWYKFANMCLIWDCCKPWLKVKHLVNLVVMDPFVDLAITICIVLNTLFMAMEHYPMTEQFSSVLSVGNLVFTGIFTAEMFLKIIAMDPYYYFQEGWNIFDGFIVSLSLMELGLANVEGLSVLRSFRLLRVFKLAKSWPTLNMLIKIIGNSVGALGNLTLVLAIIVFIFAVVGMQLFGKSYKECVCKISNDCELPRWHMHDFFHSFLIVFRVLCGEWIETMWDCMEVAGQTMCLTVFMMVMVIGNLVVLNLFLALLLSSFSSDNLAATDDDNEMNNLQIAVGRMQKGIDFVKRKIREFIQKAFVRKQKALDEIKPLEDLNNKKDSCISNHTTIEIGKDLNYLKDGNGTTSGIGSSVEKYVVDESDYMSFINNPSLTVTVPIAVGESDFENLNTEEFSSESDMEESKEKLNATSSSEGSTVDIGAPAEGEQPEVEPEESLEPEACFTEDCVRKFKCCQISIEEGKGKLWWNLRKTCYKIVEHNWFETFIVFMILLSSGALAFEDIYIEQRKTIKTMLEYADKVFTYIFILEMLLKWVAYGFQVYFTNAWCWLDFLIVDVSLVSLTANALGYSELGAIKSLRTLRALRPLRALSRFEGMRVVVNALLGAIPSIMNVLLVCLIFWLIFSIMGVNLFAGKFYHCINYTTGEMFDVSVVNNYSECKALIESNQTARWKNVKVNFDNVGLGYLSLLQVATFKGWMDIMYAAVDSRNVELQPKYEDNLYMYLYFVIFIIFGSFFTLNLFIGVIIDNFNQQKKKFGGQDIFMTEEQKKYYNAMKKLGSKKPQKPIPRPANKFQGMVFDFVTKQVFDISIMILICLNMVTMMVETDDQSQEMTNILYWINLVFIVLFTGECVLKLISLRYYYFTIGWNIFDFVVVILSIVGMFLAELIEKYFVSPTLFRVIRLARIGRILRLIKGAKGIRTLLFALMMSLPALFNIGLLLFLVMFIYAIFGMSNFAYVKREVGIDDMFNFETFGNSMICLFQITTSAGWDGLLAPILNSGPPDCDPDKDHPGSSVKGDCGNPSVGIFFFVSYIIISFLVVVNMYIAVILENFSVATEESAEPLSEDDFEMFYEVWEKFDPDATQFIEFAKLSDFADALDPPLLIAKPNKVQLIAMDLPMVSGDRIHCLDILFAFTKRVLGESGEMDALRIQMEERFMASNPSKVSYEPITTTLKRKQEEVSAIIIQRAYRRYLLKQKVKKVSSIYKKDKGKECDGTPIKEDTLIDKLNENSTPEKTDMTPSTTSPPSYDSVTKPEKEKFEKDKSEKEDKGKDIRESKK
Sodium channel protein type 5 subunit alpha, sequence (Q14524 whole entry): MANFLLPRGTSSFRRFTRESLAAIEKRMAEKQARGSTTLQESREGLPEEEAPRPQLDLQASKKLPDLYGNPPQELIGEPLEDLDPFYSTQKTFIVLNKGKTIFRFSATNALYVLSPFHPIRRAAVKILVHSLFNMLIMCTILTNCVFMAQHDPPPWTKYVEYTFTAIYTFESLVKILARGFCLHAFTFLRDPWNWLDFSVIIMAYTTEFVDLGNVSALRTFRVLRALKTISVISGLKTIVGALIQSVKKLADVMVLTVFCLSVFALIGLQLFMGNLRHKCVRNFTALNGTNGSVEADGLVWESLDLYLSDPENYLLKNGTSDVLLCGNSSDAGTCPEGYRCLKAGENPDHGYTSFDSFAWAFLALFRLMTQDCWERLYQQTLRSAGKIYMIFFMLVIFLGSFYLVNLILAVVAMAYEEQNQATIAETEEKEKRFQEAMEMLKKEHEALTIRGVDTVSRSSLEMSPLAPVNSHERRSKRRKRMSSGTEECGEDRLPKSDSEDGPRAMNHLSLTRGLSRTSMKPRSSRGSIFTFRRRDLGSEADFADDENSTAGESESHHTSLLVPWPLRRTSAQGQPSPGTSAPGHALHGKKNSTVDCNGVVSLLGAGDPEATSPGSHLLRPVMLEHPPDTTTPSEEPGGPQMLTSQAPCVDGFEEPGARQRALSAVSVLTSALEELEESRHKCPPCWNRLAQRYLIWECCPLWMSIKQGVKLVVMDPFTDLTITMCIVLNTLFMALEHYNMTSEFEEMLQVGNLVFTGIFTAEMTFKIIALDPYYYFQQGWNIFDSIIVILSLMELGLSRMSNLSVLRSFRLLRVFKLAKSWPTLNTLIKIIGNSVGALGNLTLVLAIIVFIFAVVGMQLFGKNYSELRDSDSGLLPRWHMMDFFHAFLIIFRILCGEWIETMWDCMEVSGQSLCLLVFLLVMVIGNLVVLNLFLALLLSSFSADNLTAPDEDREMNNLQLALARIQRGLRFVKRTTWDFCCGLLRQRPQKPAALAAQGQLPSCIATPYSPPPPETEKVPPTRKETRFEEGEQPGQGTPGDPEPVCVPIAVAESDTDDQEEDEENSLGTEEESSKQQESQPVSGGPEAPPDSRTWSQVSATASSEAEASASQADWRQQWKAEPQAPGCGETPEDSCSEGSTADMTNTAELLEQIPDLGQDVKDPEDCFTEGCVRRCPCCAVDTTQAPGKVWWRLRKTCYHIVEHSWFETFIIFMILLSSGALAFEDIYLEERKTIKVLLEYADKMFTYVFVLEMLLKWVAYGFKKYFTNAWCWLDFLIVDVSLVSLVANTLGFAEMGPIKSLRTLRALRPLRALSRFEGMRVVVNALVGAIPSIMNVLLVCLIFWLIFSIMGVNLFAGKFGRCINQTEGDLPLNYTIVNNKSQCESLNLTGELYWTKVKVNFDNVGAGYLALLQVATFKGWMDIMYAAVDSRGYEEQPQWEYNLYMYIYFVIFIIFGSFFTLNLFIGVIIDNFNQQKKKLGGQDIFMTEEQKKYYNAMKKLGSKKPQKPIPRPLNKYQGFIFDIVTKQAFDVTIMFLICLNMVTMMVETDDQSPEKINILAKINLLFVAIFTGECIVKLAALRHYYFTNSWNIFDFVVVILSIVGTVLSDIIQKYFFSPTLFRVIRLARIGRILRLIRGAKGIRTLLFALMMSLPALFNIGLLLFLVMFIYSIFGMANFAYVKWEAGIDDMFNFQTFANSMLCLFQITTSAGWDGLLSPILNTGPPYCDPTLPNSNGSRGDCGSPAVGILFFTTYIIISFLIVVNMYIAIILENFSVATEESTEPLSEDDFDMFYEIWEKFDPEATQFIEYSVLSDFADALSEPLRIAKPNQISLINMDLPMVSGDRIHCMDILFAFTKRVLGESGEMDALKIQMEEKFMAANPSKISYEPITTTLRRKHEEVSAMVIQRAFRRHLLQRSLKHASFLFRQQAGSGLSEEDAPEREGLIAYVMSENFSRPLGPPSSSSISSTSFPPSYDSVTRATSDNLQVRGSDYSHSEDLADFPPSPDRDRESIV

The term IC50 denotes the concentration at which inhibition is half-maximal. A low value points to inhibition by little substance. Take `COc1cc(NC(=N)NC(=O)c2ccc(C)cc2)cc(OC)c1OC`: the figures for the 50% inhibitory concentration (IC50) in series [1] and in series [2] were 24.4 µM and 1.92 µM, respectively.

`Cc1ccc(C(=O)N/C(N)=N\c2ccccc2C(C)C)cc1`: the IC50 in series [1] was determined as 4.5 µM; in series [2], 4.36 µM.

On to `Cc1ccc(C(=O)NC(=N)NCCCc2ccccc2)cc1`, for which the concentration for half-maximal inhibition (IC50) worked out at 5.25 µM in series [1] and 6.03 µM in series [2].

Turning to `Cc1ccc(C(=O)NC(=N)Nc2cccc3ccccc23)cc1`, the IC50 in series [2] stood at 3.29 µM. This lies in the single-digit micromolar range.

On to `Cc1ccc(C(=O)NC(=N)Nc2ccc(OC(C)C)cc2)cc1`, for which the concentration for half-maximal inhibition (IC50) in series [1] was found to be 5.75 µM; in series [2] it was 2.02 µM.

Regarding `Cc1ccc(C(=O)NC(N)=NCCOc2ccccc2)cc1`, the values for the 50% inhibitory concentration (IC50) in series [1] and in series [2] were 14.2 µM and 3.23 µM, respectively.

As for `Cc1ccc(C(=O)NC(N)=Nc2cc(Br)ccc2Br)cc1`, the IC50 in series [2] is more than 25 µM.

As usually defined, the inhibition in vivo is the drop in the measured response relative to a control, in per cent. Higher therefore signals a response far below the control. With `Cc1ccccc1C(=O)NC(N)=NCCCCc1ccccc1`, the half-maximal inhibitory concentration (IC50) in series [1] is 1.75 µM; in series [2], 1.2 µM. In the series on Mus musculus, this compound showed an inhibition in vivo at 20 mg/kg of 53%.

As to `Cc1ccc(C(=O)NC(=N)Nc2ccc(OCc3ccccc3)cc2)cc1`, the 50% inhibitory concentration (IC50) in series [2] stood at 10.1 µM.

Take `Cc1ccc(C(=O)NC(=N)NCCCCCc2ccccc2)cc1`: the concentration for half-maximal inhibition (IC50) in series [1] is 3.6 µM; in series [2], 2.11 µM. This compound registered an inhibition in vivo at 20 mg/kg in the series with Mus musculus of 7%.

Turning to `Cc1ccc(C(=O)NC(N)=NCCc2ccccc2)cc1`, the IC50 worked out at 5.65 µM in series [1] and 2.66 µM in series [2].

One may read the pKa as the pH at which an ionisable group is half protonated. A low value points to a group that gives up its proton readily. The logD is the decadic logarithm of the distribution of all forms, ionised or not, between an organic phase and buffer at a given pH. A lower logD goes with a more hydrophilic compound. In series [3], `Cc1ccc(C(=O)NC(=N)Nc2ccc(C(C)C)cc2)cc1` showed a pKa of 6.35. Further, the IC50 in series [1] came to 19.7 µM; in series [2], 1.95 µM. This compound registered a pH-dependent lipophilicity (logD) in series [4] of 4.4. For the same compound, the inhibition in vivo at 20 mg/kg with Mus musculus was 30%.

With `NC(=NCCCCc1ccccc1)NC(=O)c1ccc(Cl)c(Cl)c1`, the IC50 worked out at 15.5 µM in series [1] and 7.11 µM in series [2].

As to `Cc1ccc(C(=O)NC(=N)NCCc2cccs2)cc1`, the IC50 in series [1] came out at 10.5 µM; in series [2], 4.95 µM.

With `CCCCOc1ccc(C(=O)NC(N)=NCCCCc2ccccc2)cc1`, the results for the concentration for half-maximal inhibition (IC50) in series [1] and in series [2] were 0.56 µM and 0.63 µM, respectively. This compound also showed an inhibition in vivo at 20 mg/kg with Mus musculus of 97%.

Regarding `N=C(NCCCCc1ccccc1)NC(=O)c1cccs1`, the results for the 50% inhibitory concentration (IC50) in series [1] and in series [2] were 2.35 µM and 4.31 µM, respectively.

In series [2], `Cc1ccc(C(=O)NC(=N)N(C)c2cccc(I)c2)cc1` came in with a 50% inhibitory concentration (IC50) of 9.45 µM.

Consider `Cc1ccc(C(=O)NC(N)=NCc2cccc3ccccc23)cc1`, for which the half-inhibitory concentration (IC50) in series [1] worked out at 8.85 µM; in series [2], 2.38 µM.

In the case of `CCOc1ccc(C(=O)NC(N)=NCCCCc2ccccc2)cc1`, the half-maximal inhibitory concentration (IC50) in series [1] was found to be 1.1 µM; in series [2], 0.76 µM. In addition, the inhibition in vivo at 20 mg/kg in the series on Mus musculus was 60%.

Take `Cc1ccc(C(=O)NC(=N)NCCCCc2ccccc2)cc1`: in series [3], the pKa amounted to 7.09. Moreover, the 50% inhibitory concentration (IC50) in series [1] amounted to 2.85 µM; in series [2], 1.14 µM. The inhibition in vivo at 20 mg/kg in the series on Mus musculus stood at 75%.

Regarding `Cc1ccc(C(=O)NC(N)=NCCCOc2ccccc2)cc1`, the IC50 in series [1] was 5.6 µM; in series [2] it was 2.67 µM. For the same compound, in the series on Mus musculus, the inhibition in vivo at 20 mg/kg came to 54%.

As to `NC(=NCCCCc1ccccc1)NC(=O)c1cccc(Cl)c1Cl`, the figures for the IC50 in series [1] and in series [2] were 2.71 µM and 1.48 µM, respectively.

Consider `NC(=NCCCCc1ccccc1)NC(=O)c1ccco1`, for which the IC50 in series [1] turned out to be 7.9 µM; in series [2] it was 13.8 µM. In addition, testing at 20 mg/kg in the series on Mus musculus gave an inhibition in vivo of 5%.

With `COc1cc(C(=O)NC(N)=NCCCCc2ccccc2)cc(OC)c1OC`, the 50% inhibitory concentration (IC50) in series [1] was determined as 1.51 µM; in series [2], 1.39 µM.

In the case of `NC(=NCCCCc1ccccc1)NC(=O)c1c(Cl)cccc1Cl`, the IC50 in series [1] was found to be 5.4 µM; in series [2], 5.03 µM.

In series [2], `Cc1ccc(C(=O)NC(=N)N2CCCc3ccc(C(F)(F)F)cc32)cc1` yielded an IC50 of more than 25 µM.

Turning to `Cc1ccc(C(=O)NC(N)=NCc2ccccc2)cc1`, in series [2], the half-maximal inhibitory concentration (IC50) turned out to be 3.87 µM.

In series [2], `Cc1ccc(C(=O)NC(=N)Nc2ccc(C(C)(C)C)cc2)cc1` gave a 50% inhibitory concentration (IC50) of more than 24 µM.

Consider `NC(=NCCCCc1ccccc1)NC(=O)c1cccc2ccccc12`, for which the results for the half-maximal inhibitory concentration (IC50) in series [1] and in series [2] were 4.1 µM and 0.86 µM, respectively. For the same compound, at 20 mg/kg the inhibition in vivo with Mus musculus was 9%.

In turn, `N=C(N)NC(=O)c1ccccc1` gave a pKa in series [3] of 6.98.

Compound `Cc1ccc(C(=O)NC(N)=NCCCN(C)C)cc1` came in with a concentration for half-maximal inhibition (IC50) in series [2] of more than 25 µM.

As for `Cc1ccc(C(=O)NC(=N)N(C)Sc2cccc(C)c2)cc1`, it took 5.44 µM to reach half-maximal inhibition in series [2] (IC50).

In the case of `Cc1ccc(C(=O)NC(N)=NCCSCc2ccccc2)cc1`, the concentration for half-maximal inhibition (IC50) in series [1] stood at 10.8 µM; in series [2], 3.9 µM.

On to `COc1cccc2[nH]cc(CCN=C(N)NC(=O)c3ccc(C)cc3)c12`, for which the IC50 in series [1] was determined as 3.92 µM; in series [2] it was 3.35 µM.

On to `Cc1ccc(C(=O)NC(N)=NCCc2ccc(Cl)cc2)cc1`, for which the IC50 in series [1] amounted to 8.5 µM; in series [2] it was 1.97 µM.

Turning to `COc1ccc(C(=O)NC(=N)NCCCCc2ccccc2)cc1`, the half-inhibitory concentration (IC50) in series [1] turned out to be 2.1 µM; in series [2] it was 0.82 µM. Further, in the series with Mus musculus, the inhibition in vivo at 20 mg/kg is 42%.

`CN=C(NCCCCc1ccccc1)NC(=O)c1ccc(C)cc1`: the concentration for half-maximal inhibition (IC50) in series [1] was determined as 9 µM; in series [2], 4.16 µM.

For the compound `NC(=NCCCCc1ccccc1)NC(=O)c1ccc(Cl)cc1`, the figures for the IC50 in series [1] and in series [2] were 3.6 µM and 4.3 µM, respectively.

Consider `Cc1ccc(C(=O)NC(=N)N2CCc3ccccc32)cc1`, for which the concentration for half-maximal inhibition (IC50) is more than 100 µM in series [1] and 8.81 µM in series [2]. In addition, at 20 mg/kg the inhibition in vivo with Mus musculus was 16%.

Take `COc1ccc2[nH]cc(CCN=C(N)NC(=O)c3ccc(C)cc3)c2c1`: the IC50 in series [1] and in series [2] was 1.76 µM each time.

As to `NC(=NCCCCc1ccccc1)NC(=O)c1cc(Cl)ccc1Cl`, the half-maximal inhibitory concentration (IC50) in series [1] came to 7.89 µM; in series [2] it was 3.25 µM.

Regarding `CCCC/N=C(/N)NC(=O)c1ccc(C)cc1`, the 50% inhibitory concentration (IC50) turned out to be 9 µM in series [1] and 17.4 µM in series [2].

In turn, `N=C(N)N` [GUANIDINE] came in with a pKa in series [3] of 12.6.

With `N=C(N)Nc1ccccc1` [PHENYLGUANIDINE], the pKa in series [3] turned out to be 10.8.

For the origin of these results see ChEMBL document CHEMBL1134151, “Solution-phase, parallel synthesis and pharmacological evaluation of acylguanidine derivatives as potential sodium channel blockers” (Bioorg Med Chem Lett, 2001).
